Patent publication US10294202B2, “Pyrrolidinones as herbicides” (FMC Corporation, priority 2013, dated 2019)

How the values were obtained:
blackgrass = experiment: Test A postemergence herbicide test; type: in vivo, Alopecurus myosuroides; conditions: for Plant response rating, Blackgrass: 125 g ai/ha, 0 to 100 scale; for Blackgrass plant response rating (0 to 100 scale, 0 is no effect, 100 is complete control): 500 g ai/ha
Method in brief: (§1)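 Visual injury rating, 0 (no effect) to 100 (complete control), versus untreated controls ~10 days after treatment. Postemergence spray applied at one- to two-leaf stage, plants 2–10 cm tall, potted in loam soil/sand. Greenhouse-held.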

corn = experiment: Test A pre-/postemergence herbicide test; type: in vivo, Zea mays; conditions: Postemergence; for Plant response rating, Corn: 125 g ai/ha, 0 to 100 scale; for Corn plant response rating (0 to 100 scale, 0 is no effect, 100 is complete control): 500 g ai/ha
Method in brief: (§2)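 Seeds in loam–sand blend received preemergence directed soil spray; separately, plants 2–10 cm at one- to two-leaf stage received postemergence spray, both with test chemicals in non-phytotoxic solvent with surfactant. After ~10 days in greenhouse, injury rated visually against untreated controls, 0 (no effect) to 100 (complete control).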

kochia = experiment: Test A pre-/postemergence herbicide test; type: in vivo, Kochia scoparia; conditions: for Plant response rating, Kochia: 0 to 100 scale
Method in brief: as §2

giant foxtail = experiment: Test A pre-/postemergence herbicide test; type: in vivo, Setaria faberii; conditions: for Plant response rating, Foxtail, Giant: 0 to 100 scale
Method in brief: as §2

ducksalad = experiment: Test B flooded paddy test; type: in vivo, Heteranthera limosa; conditions: 500 g ai/ha, Flood; scale of 0 to 100 where 0 is no effect and 100 is complete control
Method in brief: (§3)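 Scored visually 0–100 (0 no effect, 100 complete control) versus controls after 13 to 15 greenhouse days. Treatment: compound added to paddy water kept 3 cm above soil, on 2-leaf-stage plants.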

ragweed = experiment: Test A pre-/postemergence herbicide test; type: in vivo, Ambrosia elatior; conditions: for Plant response rating, Ragweed: 0 to 100 scale
Method in brief: as §2

rice = experiment: Test B flooded paddy test; type: in vivo, Oryza sativa; conditions: 500 g ai/ha, Flood; scale of 0 to 100 where 0 is no effect and 100 is complete control
Method in brief: as §3

barnyardgrass [1] = experiment: Test A pre-/postemergence herbicide test; type: in vivo, Echinochloa crus-galli
Method in brief: as §2

sedge, umbrella = experiment: Test B flooded paddy test; type: in vivo, Cyperus difformis; conditions: 500 g ai/ha, Flood; scale of 0 to 100 where 0 is no effect and 100 is complete control
Method in brief: as §3

wheat = experiment: Test A pre-/postemergence herbicide test; type: in vivo, Triticum aestivum; conditions: Postemergence; for Plant response rating, Wheat: 125 g ai/ha, 0 to 100 scale; for Wheat plant response rating (0 to 100 scale, 0 is no effect, 100 is complete control): 500 g ai/ha
Method in brief: as §2

barnyardgrass [2] = experiment: Test B flooded paddy test; type: in vivo, Echinochloa crus-galli; conditions: 500 g ai/ha, Flood; scale of 0 to 100 where 0 is no effect and 100 is complete control
Method in brief: as §3

pigweed = experiment: Test A pre-/postemergence herbicide test; type: in vivo, Amaranthus retroflexus; conditions: for Plant response rating, Pigweed: 0 to 100 scale
Method in brief: as §2

ryegrass, Italian = experiment: Test A pre-/postemergence herbicide test; type: in vivo, Lolium multiflorum; conditions: for Plant response rating, Ryegrass, Italian: 0 to 100 scale
Method in brief: as §2

galium = experiment: Test A postemergence herbicide test; type: in vivo, Galium aparine; conditions: for Plant response rating, Galium: 125 g ai/ha, 0 to 100 scale; for Galium plant response rating (0 to 100 scale, 0 is no effect, 100 is complete control): 500 g ai/ha
Method in brief: as §1

[3] = 0 no effect, 100 complete control
[4] = 125 g ai/ha, visual rating, 0 no effect, 100 complete control, approximately 10 days, preemergence
[5] = Postemergence, 125 g ai/ha, 0 no effect, 100 complete control
[6] = 125 g ai/ha, visual rating, 0 to 100 scale, 0 no effect, 100 complete control, approximately 10 days, preemergence
[7] = 0 is no effect, 100 is complete control
[8] = Postemergence, 125 g ai/ha, 0 is no effect, 100 is complete control
[9] = preemergence, 500 g ai/ha, 0 is no effect and 100 is complete control

Structure (SMILES)	Blackgrass plant response rating (0 to 100 scale, 0 is no effect, 100 is complete control) (blackgrass)	Corn plant response rating (0 to 100 scale, 0 is no effect, 100 is complete control) (corn)	Plant response rating, Kochia (kochia; [4])	Kochia plant response rating (0 to 100 scale, 0 is no effect, 100 is complete control) (kochia; Postemergence, 500 g ai/ha)	Plant response rating, Foxtail, Giant (giant foxtail; [4])	Foxtail, Giant plant response rating (0 to 100 scale, 0 is no effect, 100 is complete control) (giant foxtail; Postemergence, 500 g ai/ha)	Plant response rating, Ducksalad (ducksalad)	Plant response rating, Ragweed (ragweed; [4])	Ragweed plant response rating (0 to 100 scale, 0 is no effect, 100 is complete control) (ragweed; Postemergence, 500 g ai/ha)	Plant response rating, Rice (rice)	Plant response rating, Barnyardgrass (barnyardgrass [1]; [6])	Barnyardgrass plant response rating (0 to 100 scale, 0 is no effect, 100 is complete control) (barnyardgrass [1]; Postemergence, 500 g ai/ha)	Plant response rating, Sedge, Umbrella (sedge, umbrella)	Wheat plant response rating (0 to 100 scale, 0 is no effect, 100 is complete control) (wheat)	Plant response rating, Barnyardgrass (barnyardgrass [2])	Plant response rating, Pigweed (pigweed; [4])	Pigweed plant response rating (0 to 100 scale, 0 is no effect, 100 is complete control) (pigweed; Postemergence, 500 g ai/ha)	Plant response rating, Ryegrass, Italian (ryegrass, Italian; [4])	Ryegrass, Italian plant response rating (0 to 100 scale, 0 is no effect, 100 is complete control) (ryegrass, Italian; Postemergence, 500 g ai/ha)	Galium plant response rating (0 to 100 scale, 0 is no effect, 100 is complete control) (galium)	other results
Cc1ccc(C2CNC(=O)C2C(=O)Nc2ccccc2F)cc1F (racemic) [Compound 144]	30	20	0	0	60	70	100	0	0	0	90	90	0	0	65	0	0	0	40	70	Plant response rating, Blackgrass (blackgrass; [3]): 0; Plant response rating, Corn (corn; [3]): 0; Plant response rating, Kochia (kochia; [5]): 0; Plant response rating, Kochia (kochia; preemergence, 500 g ai/ha): 0; Plant response rating, Foxtail, Giant (giant foxtail; [5]): 40; Plant response rating, Foxtail, Giant (giant foxtail; preemergence, 500 g ai/ha): 80; Plant response rating, Ragweed (ragweed; [5]): 0; Plant response rating, Ragweed (ragweed; preemergence, 500 g ai/ha): 0; Plant response rating, Barnyardgrass (barnyardgrass [1]; Postemergence, 125 g ai/ha, 0 to 100 scale, 0 no effect, 100 complete control): 90; Plant response rating, Barnyardgrass (barnyardgrass [1]; preemergence, 500 g ai/ha, 0 to 100 scale (0 no effect, 100 complete control)): 90; Plant response rating, Wheat (wheat; [3]): 0; Plant response rating, Pigweed (pigweed; [5]): 0; Plant response rating, Pigweed (pigweed; preemergence, 500 g ai/ha): 0; Plant response rating, Ryegrass, Italian (ryegrass, Italian; [5]): 0; Plant response rating, Ryegrass, Italian (ryegrass, Italian; preemergence, 500 g ai/ha): 20; Plant response rating, Galium (galium; [3]): 10
O=C1NCC(c2ccc(Cl)cc2)C1C(=O)Nc1ccccc1C(F)(F)F (stereo not drawn) [Compound 219]	50	0	10	10	90	80	100	0	0	0	30	50	0	0	40	0	0	0	0	60	Plant response rating, Blackgrass (blackgrass; [7]): 40; Plant response rating, Corn (corn; [7]): 0; Plant response rating, Kochia (kochia; [8]): 0; Plant response rating, Kochia (kochia; [9]): 70; Plant response rating, Foxtail, Giant (giant foxtail; [8]): 60; Plant response rating, Foxtail, Giant (giant foxtail; [9]): 90; Plant response rating, Ragweed (ragweed; [8]): 0; Plant response rating, Ragweed (ragweed; [9]): 0; Plant response rating, Barnyardgrass (barnyardgrass [1]; Postemergence, 125 g ai/ha, 0 to 100 scale, 0 is no effect, 100 is complete control): 40; Plant response rating, Barnyardgrass (barnyardgrass [1]; preemergence, 500 g ai/ha, 0 to 100 scale, 0 is no effect and 100 is complete control): 60; Plant response rating, Wheat (wheat; [7]): 0; Plant response rating, Pigweed (pigweed; [8]): 0; Plant response rating, Pigweed (pigweed; [9]): 0; Plant response rating, Ryegrass, Italian (ryegrass, Italian; [8]): 0; Plant response rating, Ryegrass, Italian (ryegrass, Italian; [9]): 0; Plant response rating, Galium (galium; [7]): 30
